According to patent US8778882B2, “Agent for strengthening calcium containing tissue and use thereof” (Hayashibara Co., Ltd., priority 2002, dated 2014):

Legend:
[1] = tested on: mouse pre-osteoblastic cell MC3T3-E1; test: Calcium deposition amount by Calcium C Test Wako; format: cell-based
Excerpt: Other flavonoid compounds than kaempferol or hesperetin were investigated where they have the same effect or not. Flavone (commercialized by Kanto Kagaku, Tokyo, Japan), apigenin (commercialized by Funakoshi, Co., Ltd., Tokyo, Japan), flavonol (commercialized by Tokyo Kasei Kogyo, Co., Ltd., Tokyo, Japan), quercetin (commercialized by Kanto Kagaku, Tokyo, Japan), kaempferol (commercialized by Funakoshi, Co., Ltd., Tokyo, Japan), rutin (commercialized by Kanto Kagaku, Tokyo, Japan), flavanone (commercialized by Kanto Kagaku, Tokyo, Japan), naringenin (commercialized by Ardrich Corporation), hesperetin (commercialized by Funakoshi, Co., Ltd., Tokyo, Japan), hesperidin (commercialized by Kanto Kagaku, Tokyo, Japan), chalcone (commercialized by Merk Corporation), fuloretin (commercialized by Sigma Corporation), catechin (commercialized by Sigma Corporation), ipriflavone (commercialized by Daito Corporation, Toyama, Japan), taxifolin (commercialized by Funakoshi, Co., Ltd., Tokyo, Japan), sulfuretin (commercialized by Funakoshi, Co., Ltd.; Tokyo, Japan), or cyanidin (commercialized by Funakoshi, Co., Ltd., Tokyo, Japan) was selected as test samples. Alkaline phosphatase activity was measured by the method of Experiment 1. Calcium deposition was measured by usual method using “Calcium C Test Wako” (commercialized by Wako Pure Chemical Industries, Osaka, Japan), briefly, cultured cells were washed with 1 ml of Dulbecco phosphate buffer saline three times after removing the medium. To the resultant was added 0.5 ml of 2N hydrochloric acid to resolve deposited calcium. To 5 μl of the resultant solution were added 0.5 ml of 0.88M monoethanolamine buffer (pH11) and 0.05 ml of 0.63 mM o-cresolphthalein complexone solution (binding to calcium ion to form chelate complex) containing 69 mM 8-quinolinol and mixed. Calcium amount per one hole of the plate was calculated by measuring absorbance 570 nm of the resultants and standardizing with a standard calcium solution. The judgement of alkaline phosphatase activity or calcium deposition amount of each sample was to calculate the relative activity or the relative calcium deposition amount to the negative control (only medium containing 0.2% (v/v) ethanol) and to compare each other.
The enhancement of calcium deposition between kaempferol and ipripfavone were compared. Test samples and their adding manner were same as Experiment 4. Calcium deposition amount was measured by usual method using “Calcium C Test Wako” (commercialized by Wako Pure Chemical Industries, Osaka, Japan); briefly, cultured cells were washed with 1 ml of Dulbecco phosphate buffer saline three times after removing the medium. To the resultant was added 0.5 ml of 2N hydrochloric acid to resolve deposited calcium. To 5 μl of the resolving solution were added 0.5 ml of 0.88M monoethanolamine buffer (pH11) and 0.05 ml of 0.63 mM o-cresolphthalein complexone solution (binding to calcium ion to form chelate complex) containing 69 mM 8-quinolinol and mixed, Calcium amount per one hole of the plate was calculated by measuring absorbance 570 nm of the resultants and standardizing with a standard calcium solution.
Kaempferol or hesperetin in combination with ipriflavone, or a kind of isoflavones, was investigated whether to enhance calcium deposition or not. Methods for preparing samples and culturing the cells were the same method described in Experiment 1 except culturing the cells for five days, Method for measuring calcium was the same method described in Experiment 3 and 5. Final ethanol concentration of the medium containing each sample was adjusted as same concentration.

Rat Femur and Tibia = test: Enhancing calcium deposition in rat femur and tibia; format: in vivo; settings: rats fed sample in high sucrose feeding stuff for eight weeks
Protocol: The experiment was performed using six three-weeks-aged female Wister rats per one group. The rats were fed with high sucrose feeding stuff containing ingredients listed Table 11 (In the Table, each value means “weight %”.) and one part by weight of each test sample; hesperetin (commercialized by Funakoshi, Co., Ltd., Tokyo, Japan), quercetin (commercialized by Tokyo Kasei Kogyo, Co., Ltd., Tokyo, Japan), α-glycosyl hesperidin (product name “αG HESPERIDINE”, commercialized by Hayashibara Shoji Inc., Okayama, Japan), α-glycosyl rutin (product name “αG RUTIN P”, commercialized by Hayashibara Shoji Inc., Okayama, Japan), or ipriflavone (commercialized by Daito Corporation, Toyama, Japan) (positive control). As a negative control, rats fed with feedstuff containing one part by weight of sucrose replacing test sample were prepared. The rats were allowed to freely take water. The rats were killed after eight weeks, and then, their femurs and tibias were excised. Each femur or tibia dried at 100° C. for about six hours was measured by electric even balance for high precision analysis (product name “HA180M/12QM”, commercialized by A & D Co, Ltd., Tokyo, Japan), and then, each bone was placed into a crucible and burned in an incinerator at 950° C. for six hours. The cinerary resultant was resolved in hydrochloric solution and provided for measuring calcium amount by atomic absorption photometer. Calcium amount per one dried bone was calculated and compared each other.

Mouse MC3T3-E1 cells = test: Calcium deposition by alizarin red-S staining; format: cell-based; design: key: +: same strength of red color as a negative control (only medium containing 0.2% (v/v) ethanol); ++: half strength of the positive control; +++: same strength of red color as a positive control (indomethacin); settings: MC3T3-E1, 20 mM each compound (so in the source), eight days, alizarin red-S red color judgement
Excerpt: Following Experiment 1 which investigates differentiating pre-osteoblastic cells into osteoblastic cells, some of organic compounds were investigated whether they actually enhance calcium deposition or not. Indomethacin (commercialized by Funakoshi, Co., Ltd., Tokyo, Japan) (positive control), kaempferol (commercialized by Funakoshi, Co., Ltd., Tokyo, Japan), hesperetin (commercialized by Funakoshi, Co., Ltd., Tokyo, Japan), gallic acid (commercialized by Nacalai Tesque, Kyoto, Japan), and coffeic acid (commercialized by Wako Pure Chemical Industries, Osaka, Japan) were selected as organic compounds. Mouse MC3T3-E1 cells were treated with 20 mM each above compound dissolved in 1 ml of α-MEM medium supplemented with 10% (v/v) fetal calf serum and containing 10 mM β-glycerophosphate. Since final ethanol concentration in the medium is 0.2% (v/v), α-MEM medium containing 0.2% (v/v) ethanol was prepared as a negative control. The cells were inoculated for eight days as changing the medium therewith to fresh medium with or without each sample per three days. The cells were applied to measure calcium deposition therein by usual alizarin red-S staining method. Briefly to the cells washed with 1 ml of Dulbecco phosphate buffer saline twice after removing the medium were added 1 ml of 50 (v/v) % ethanol aqueous solution and incubated for 10 minutes. After removing the 50 (v/v) % ethanol aqueous solution, the cells were incubated with 1 ml of distilled water for 10 minutes. After removing the water, the cells were applied with 1 ml of 1% (w/v) alizarin red-S solution, incubated for 10 minutes, and washed with 1 ml of distilled water for three times after removing alizarin red-S solution. Then, the calcium deposition amount was measured in a manner of judging red color on the plate bottom since deposited calcium was stained by the above treatment. The judgement criterion “+” means same strength of red color as a negative control (only medium containing 0.2% (v/v) ethanol), “+++” means same strength of red color as a positive control (indomethacin), and “++” means half strength of the positive control.

For COc1ccc([C@@H]2CC(=O)c3c(O)cc(O)cc3O2)cc1O [Hesperetin], the “enhancing calcium deposition in combination with ipriflavone versus single use (FIGS. 3 and 4)” value ([1]; 5, 10 or 20 μM each, five days culture) was “a synergy effect was confirmed”, the “Relative Calcium Deposition Amount (%)” value ([1]; flavonoid comparison, Calcium C Test Wako, relative to 0.2% (v/v) ethanol negative control) was 289% and the “Calcium Content Per One Dried Bone” value (Rat Femur and Tibia; Femur) was 125.1 mg. The “Dried Bone Mass” value (Rat Femur and Tibia; Femur) was 0.463 g, the “Calcium Content Per One Dried Bone” value (Rat Femur and Tibia; Tibia) was 109.0 mg and the “Dried Bone Mass” value (Rat Femur and Tibia; Tibia) was 0.357 g. For the same compound, the “Calcium Deposition Amount” value (Mouse MC3T3-E1 cells) was “+++”.
